This note sets out measurements from patent US11596692B1 (Incyte Corporation, priority 2018, dated 2023).

Molecules are shown by their SMILES.

One test concerns IRF3. In words: IRF3 activation assay in THP-1 Dual cells. It is filed as cell-based. The settings on record: Homo sapiens, THP-1, Table 4A; read-out: THP1 IRF3 EC50. The method, then: THP-1 Dual Cells (Invivogen) were maintained in RPMI1640 medium with addition of 10% FBS, 100 μg/ml zeocin, 10 μg/ml blasticidin. Cells were added in a 96-well flat bottom assay plate at 100,000 per well in 100 μL complete RPMI medium. Test compounds were prepared by serial dilution in complete RPMI medium and 100 μL test compounds were transferred to each corresponding well. The assay plate was incubated at 37° C., 5% CO2 for 24 hours. After the overnight incubation, 20 μL of the culture supernatants were collected, followed by addition of 180 μL of QUANTI-Blue (Invivogen) to assess IRF3 activity. The amount of IRF3 activation was assessed by reading the absorbance at 620-655 nm with a microplate reader 2 hours later. The culture supernatant from the untreated THP-1 cells was used as the negative control. EC50 determination was performed by fitting the curve of percent control activity versus the log of the compound concentration using the GraphPad Prism 6.0 software.
By EC50 is commonly meant the concentration at which the effect is half-maximal. Take `CCn1nc(C)cc1C(=O)Nc1nc2cc(C(N)=O)cc(OC)c2n1C/C=C/Cn1c(NC(=O)c2cc(C)nn2CC)nc2cc(C(N)=O)cc(OCCCNC(C)=O)c21` [Example S33, (E)-7-(3-acetamidopropoxy)-1-(4-(5-carbamoyl-2-(1-ethyl-3-methyl-1H-pyrazole-5-carboxamido)-7-methoxy-1H-benzo[d]imidazol-1-yl)but-2-en-1-yl)-2-(1-ethyl-3-methyl-1H-pyrazole-5-carboxamido)-1H-benzo[d]imidazole-5-carboxamide]: the EC50 was not above 100 nM.

Still in this test, the particulars now being: Homo sapiens, THP-1, Table 4C; read-out: THP1 IRF3 EC50.
`CCn1nc(C)cc1C(=O)Nc1nc2cc(C(N)=O)cc(OCCCC#N)c2n1C/C=C/Cn1c2nc(-c3cc(C)nn3CC)ncc2c2cc(C(N)=O)cc(OCCCOC)c21` [Example S34, (E)-9-(4-(5-carbamoyl-7-(3-cyanopropoxy)-2-(1-ethyl-3-methyl-1H-pyrazole-5-carboxamido)-1H-benzo[d]imidazol-1-yl)but-2-en-1-yl)-2-(1-ethyl-3-methyl-1H-pyrazol-5-yl)-8-(3-methoxypropoxy)-9H-pyrimido[4,5-b]indole-6-carboxamide]: the EC50 was not above 50 nM.

On to `CCn1nc(C)cc1C(=O)Nc1nc2cc(C(N)=O)cc(OC(C)C)c2n1C/C=C/Cn1c2nc(-c3cc(C)nn3CC)ncc2c2cc(C(N)=O)cc(OCCCOC)c21` [Example S35, (E)-9-(4-(5-carbamoyl-2-(1-ethyl-3-methyl-1H-pyrazole-5-carboxamido)-7-isopropoxy-1H-benzo[d]imidazol-1-yl)but-2-en-1-yl)-2-(1-ethyl-3-methyl-1H-pyrazol-5-yl)-8-(3-methoxypropoxy)-9H-pyrimido[4,5-b]indole-6-carboxamide], for which the EC50 was 50 to 200 nM.

On to `CCn1nc(C)cc1C(=O)Nc1nc2cc(C(N)=O)cc(OCCCN3CCN(C)CC3)c2n1C/C=C/Cn1c2nc(-c3cc(C)nn3CC)ncc2c2cc(C(N)=O)cc(OCCCOC)c21` [Example S36, (E)-9-(4-(5-carbamoyl-2-(1-ethyl-3-methyl-1H-pyrazole-5-carboxamido)-7-(3-(4-methylpiperazin-1-yl)propoxy)-1H-benzo[d]imidazol-1-yl)but-2-en-1-yl)-2-(1-ethyl-3-methyl-1H-pyrazol-5-yl)-8-(3-methoxypropoxy)-9H-pyrimido[4,5-b]indole-6-carboxamide], for which the EC50 lay within 50 to 200 nM.

Consider `CCn1nc(C)cc1C(=O)Nc1nc2cc(C(N)=O)cc(OCCCO)c2n1C/C=C/Cn1c2ccc(C(N)=O)cc2c2cc(F)c(-c3cc(C)nn3CC)nc21` [Example S37, (E)-9-(4-(5-carbamoyl-2-(1-ethyl-3-methyl-1H-pyrazole-5-carboxamido)-7-(3-hydroxypropoxy)-1H-benzo[d]imidazol-1-yl)but-2-en-1-yl)-2-(1-ethyl-3-methyl-1H-pyrazol-5-yl)-3-fluoro-9H-pyrido[2,3-b]indole-6-carboxamide], for which the EC50 was not above 50 nM.

With `CCn1nc(C)cc1C(=O)Nc1nc2cc(C(N)=O)cc(OCCCN)c2n1C/C=C/Cn1c2nc(-c3cc(C)nn3CC)ncc2c2cc(C(N)=O)cc(OCCCOC)c21` [Example S38, (E)-9-(4-(7-(3-aminopropoxy)-5-carbamoyl-2-(1-ethyl-3-methyl-1H-pyrazole-5-carboxamido)-1H-benzo[d]imidazol-1-yl)but-2-en-1-yl)-2-(1-ethyl-3-methyl-1H-pyrazol-5-yl)-8-(3-methoxypropoxy)-9H-pyrimido[4,5-b]indole-6-carboxamide], the EC50 is 500 to 1000 nM.

In the case of `CCn1nc(C)cc1C(=O)Nc1nc2cc(C(N)=O)cc(OCCCNC(=O)CCCC(=O)O)c2n1C/C=C/Cn1c2nc(-c3cc(C)nn3CC)ncc2c2cc(C(N)=O)cc(OCCCOC)c21` [Example S39, (E)-5-((3-((5-carbamoyl-1-(4-(6-carbamoyl-2-(1-ethyl-3-methyl-1H-pyrazol-5-yl)-8-(3-methoxypropoxy)-9H-pyrimido[4,5-b]indol-9-yl)but-2-en-1-yl)-2-(1-ethyl-3-methyl-1H-pyrazole-5-carboxamido)-1H-benzo[d]imidazol-7-yl)oxy)propyl)amino)-5-oxopentanoic acid], the EC50 is not above 50 nM.

For the molecule `CCn1nc(C)cc1C(=O)Nc1nc2cc(C(N)=O)cc(OCCOC(=O)c3cc(C)nn3CC)c2n1C/C=C/Cn1c2nc(-c3cc(C)nn3CC)ncc2c2cc(C(N)=O)cc(OCCCOC)c21` [Example S40, (E)-2-((5-carbamoyl-1-(4-(6-carbamoyl-2-(1-ethyl-3-methyl-1H-pyrazol-5-yl)-8-(3-methoxypropoxy)-9H-pyrimido[4,5-b]indol-9-yl)but-2-en-1-yl)-2-(1-ethyl-3-methyl-1H-pyrazole-5-carboxamido)-1H-benzo[d]imidazol-7-yl)oxy)ethyl 1-ethyl-3-methyl-1H-pyrazole-5-carboxylate], the EC50 is not above 50 nM.

With `CCn1nc(C)cc1C(=O)Nc1nc2cc(C(N)=O)cc(OCCO)c2n1C/C=C/Cn1c2nc(-c3cc(C)nn3CC)ncc2c2cc(C(N)=O)cc(OCCCOC)c21` [Example S41, (E)-9-(4-(5-carbamoyl-2-(1-ethyl-3-methyl-1H-pyrazole-5-carboxamido)-7-(2-hydroxyethoxy)-1H-benzo[d]imidazol-1-yl)but-2-en-1-yl)-2-(1-ethyl-3-methyl-1H-pyrazol-5-yl)-8-(3-methoxypropoxy)-9H-pyrimido[4,5-b]indole-6-carboxamide], the EC50 is not above 50 nM.

As for `CCn1nc(C)cc1C(=O)Nc1nc2cc(C(N)=O)cc(OCCCNC(=O)[C@H](CC(=O)O)NC(=O)[C@H](CC(=O)O)NC(=O)[C@H](CCCNC(=N)N)NC(=O)[C@@H](N)CC(=O)O)c2n1C/C=C/Cn1c2nc(-c3cc(C)nn3CC)ncc2c2cc(C(N)=O)cc(OCCCOC)c21` [Example S42], the EC50 lay within 200 to 500 nM.

`CCn1nc(C)cc1C(=O)Nc1nc2cc(C(N)=O)cc(OCCN3CCOCC3)c2n1C/C=C/Cn1c2nc(-c3cc(C)nn3CC)ncc2c2cc(C(N)=O)cc(OCCCOC)c21` [Example S43, (E)-9-(4-(5-carbamoyl-2-(1-ethyl-3-methyl-1H-pyrazole-5-carboxamido)-7-(2-morpholinoethoxy)-1H-benzo[d]imidazol-1-yl)but-2-en-1-yl)-2-(1-ethyl-3-methyl-1H-pyrazol-5-yl)-8-(3-methoxypropoxy)-9H-pyrimido[4,5-b]indole-6-carboxamide]: the EC50 is 50 to 200 nM.

For the molecule `CCn1nc(C)cc1C(=O)Nc1nc2cc(C(N)=O)cc(OCCCNC(=O)OCCC(=O)O)c2n1C/C=C/Cn1c2nc(-c3cc(C)nn3CC)ncc2c2cc(C(N)=O)cc(OCCCOC)c21` [Example S44, (E)-3-(((3-((5-carbamoyl-1-(4-(6-carbamoyl-2-(1-ethyl-3-methyl-1H-pyrazol-5-yl)-8-(3-methoxypropoxy)-9H-pyrimido[4,5-b]indol-9-yl)but-2-en-1-yl)-2-(1-ethyl-3-methyl-1H-pyrazole-5-carboxamido)-1H-benzo[d]imidazol-7-yl)oxy)propyl)carbamoyl)oxy)propanoic acid], the EC50 is not above 50 nM.

With `CCn1nc(C)cc1C(=O)Nc1nc2cc(C(N)=O)cc(OCCCNC(=O)NCC(=O)O)c2n1C/C=C/Cn1c2nc(-c3cc(C)nn3CC)ncc2c2cc(C(N)=O)cc(OCCCOC)c21` [Example S46, (E)-((3-((5-carbamoyl-1-(4-(6-carbamoyl-2-(1-ethyl-3-methyl-1H-pyrazol-5-yl)-8-(3-methoxypropoxy)-9H-pyrimido[4,5-b]indol-9-yl)but-2-en-1-yl)-2-(1-ethyl-3-methyl-1H-pyrazole-5-carboxamido)-1H-benzo[d]imidazol-7-yl)oxy)propyl)carbamoyl)glycine], the concentration for a half-maximal effect (EC50) was not above 50 nM.

On to `CCn1nc(C)cc1C(=O)Nc1nc2cc(C(N)=O)cc(OCCCNC(=O)[C@@H](N)CC(=O)O)c2n1C/C=C/Cn1c2nc(-c3cc(C)nn3CC)ncc2c2cc(C(N)=O)cc(OCCCOC)c21` [Example S47, (S,E)-3-amino-4-((3-((5-carbamoyl-1-(4-(6-carbamoyl-2-(1-ethyl-3-methyl-1H-pyrazol-5-yl)-8-(3-methoxypropoxy)-9H-pyrimido[4,5-b]indol-9-yl)but-2-en-1-yl)-2-(1-ethyl-3-methyl-1H-pyrazole-5-carboxamido)-1H-benzo[d]imidazol-7-yl)oxy)propyl)amino)-4-oxobutanoic acid], for which the EC50 is 50 to 200 nM.

Turning to `CCn1nc(C)cc1C(=O)Nc1nc2cc(C(N)=O)cc(OCCOCCOCCC(=O)O)c2n1C/C=C/Cn1c2nc(-c3cc(C)nn3CC)ncc2c2cc(C(N)=O)cc(OCCCOC)c21` [Example S49, (E)-3-(2-(2-((5-carbamoyl-1-(4-(6-carbamoyl-2-(1-ethyl-3-methyl-1H-pyrazol-5-yl)-8-(3-methoxypropoxy)-9H-pyrimido[4,5-b]indol-9-yl)but-2-en-1-yl)-2-(1-ethyl-3-methyl-1H-pyrazole-5-carboxamido)-1H-benzo[d]imidazol-7-yl)oxy)ethoxy)ethoxy)propanoic acid], the EC50 is not above 50 nM.

As to `CCn1nc(C)cc1C(=O)Nc1nc2cc(C(N)=O)cc(OCCCNS(=O)(=O)CCCC(=O)O)c2n1C/C=C/Cn1c2nc(-c3cc(C)nn3CC)ncc2c2cc(C(N)=O)cc(OCCCOC)c21` [Example S50, (E)-4-(N-(3-((5-carbamoyl-1-(4-(6-carbamoyl-2-(1-ethyl-3-methyl-1H-pyrazol-5-yl)-8-(3-methoxypropoxy)-9H-pyrimido[4,5-b]indol-9-yl)but-2-en-1-yl)-2-(1-ethyl-3-methyl-1H-pyrazole-5-carboxamido)-1H-benzo[d]imidazol-7-yl)oxy)propyl)sulfamoyl)butanoic acid], the EC50 was not above 50 nM.
